Data set [1] can be described thus: Fluorescence-enabled inhibited autoxidation (FENIX) assay. It is filed as biochemical. As to conditions: RTA 2 μM, liposomes 1 mM; for Logkinh: FENIX assay; for kinh (10^4 M^−1s^−1) ± SD: inhibition rate constant, STY-BODIPY 1 μM, DTUN initiator, 37° C. As for the experimental part:
Unless otherwise stated, laboratory reagent grade solvents were used. Reagents were obtained from various commercial sources and were used without any prior purification. L-α-phosphatidylcholine (Egg, Chicken), powder was purchased from Merck Life Science B.V.. DTUN and STY-BODIPY were synthesized according to methods described in Shah et al. (2019) Cell Chem. Biol. 26, 1594-1607. Fluorescence was measured using the UV/vis spectrophotometer Synergy MX, Biotek with Gen5.
In order to quantify radical trapping antioxidant activity in phospholipid bilayers to a clear bottom black-walled 96-well plate for fluorescence-base assays (Invitrogen by Thermo Fisher Scientific) was added 250 μL of a solution containing liposomes (1 mM), styrene-conjugated BODIPY (STY-BODIPY, 1 μM), and the respective radical trapping antioxidant (RTA, 2 μM). The solutions were made in larger volumes in Eppendorfs, pre-mixed and 250 μL aliquot was transferred to each well. The plate was incubated for 10 minutes at 37° C. in the BioTek SynergyMx plate reader, followed by a fast-mixing protocol for 5 minutes. The plate was ejected from the plate reader and autoxidation was initiated by the addition of a 50 μL aliquot of (E)-1,2-bis((2-methyldecan-2-yl)oxy)diazene (DTUN, 0.2 mM in EtOH/PBS 3/47, v/v), followed by another mixing protocol for 5 minutes. Data were acquired by excitation probes at 488 nm and emission was measured at 518 nm (read intervals 1.0 min). Kinetic read parameters: (i) optic position: bottom, (ii) gain: 80, (iii) bandwidth: 9.0. The results of the FENIX assay are presented in Table 2 as inhibition rate constants (kinh), logkinh and stoichiometries (n) of tested compounds.

Data set [2] in a line: Kinetic solubility (turbidimetric method). The conditions noted are these: aqueous buffer, kinetic from dmso stock, PBS buffer pH 7.4, 2 hours at 37° C., read-out: Kin. solubility. It is filed as physicochemical.

Values after ≈ are worked out from the molar mass of the structure shown. Counter-ions that a name gives are not always drawn.

Data on 15 compounds can be found in patent publication US20260109678A1, “SUBSTITUTED PHENOTHIAZINES AS FERROPTOSIS INHIBITORS” (Universiteit Antwerpen, priority 2022, published 2026).

As for `c1ccc(CNc2cccc3c2Nc2ccccc2S3)cc1` [CPD-002, N-benzyl-10H-phenothiazin-1-amine], in data set [1], the Logkinh turned out to be 2.11 ± 0.07 and the “kinh (10^4 M^−1s^−1) ± SD” value was 3.04 ± 0.05 10^4 M^−1s^−1.
In the case of `NCCNC(=O)c1ccc2c(c1)Sc1ccccc1N2` [CPD-034, N-(2-aminoethyl)-10H-phenothiazine-3-carboxamide dihydrochloride], in data set [1], the Logkinh came to 2.41 ± 0.13 and the “kinh (10^4 M^−1s^−1) ± SD” value is recorded as 1.23 ± 0.01 10^4 M^−1s^−1.
For the compound `Fc1ccc(CNc2cccc3c2Nc2ccccc2S3)cc1` [CPD-003, N-(4-fluorobenzyl)-10H-phenothiazin-1-amine], in data set [1], the Logkinh turned out to be 1.89 ± 0.06 and the “kinh (10^4 M^−1s^−1) ± SD” value is 3.43 ± 0.05 10^4 M^−1s^−1.
As for `O=C(NCCN1CCNCC1)c1cc(NCc2ccc(F)cc2)c2c(c1)Sc1ccccc1N2` [CPD-029, 1-((4-Fluorobenzyl)amino)-N-(2-(piperazin-1-yl)ethyl)-10H-phenothiazine-3-carboxamide tetrahydrochloride], in data set [1], the Logkinh was determined as 1.97 ± 0.13 and the “kinh (10^4 M^−1s^−1) ± SD” value is listed as 2.64 ± 0.15 10^4 M^−1s^−1.
For the compound `O=C(NCCN1CCOCC1)c1ccc2c(c1)Sc1ccccc1N2` [CPD-032, N-(2-morpholinoethyl)-10H-phenothiazine-3-carboxamide], in data set [1], the Logkinh is recorded as 2.29 ± 0.11 and the “kinh (10^4 M^−1s^−1) ± SD” value is 1.14 ± 0.01 10^4 M^−1s^−1.
`Nc1cccc2c1Nc1ccccc1S2` [CPD-001, 10H-phenothiazin-1-amine]: in data set [1], the Logkinh stood at 1.34 ± 0.01 and the “kinh (10^4 M^−1s^−1) ± SD” value is recorded as 7.89 ± 0.45 10^4 M^−1s^−1.
Consider `NCCNC(=O)c1cc(NCc2cc(F)cc(F)c2)c2c(c1)Sc1ccccc1N2` [CPD-024, N-(2-aminoethyl)-1-((3,5-difluorobenzyl)amino)-10H-phenothiazine-3-carboxamide trihydrochloride], for which, in data set [1], the Logkinh is reported as 1.95 ± 0.33 and the “kinh (10^4 M^−1s^−1) ± SD” value is 3.41 ± 0.21 10^4 M^−1s^−1.
As for `CNCCNC(=O)c1cc(NC2CCCC2)c2c(c1)Sc1ccccc1N2` [CPD-020, 1-(Cyclopentylamino)-N-(2-(methylamino)ethyl)-10H-phenothiazine-3-carboxamide trihydrochloride], in data set [1], the Logkinh worked out at 1.97 ± 0.12 and the “kinh (10^4 M^−1s^−1) ± SD” value is 3.56 ± 0.07 10^4 M^−1s^−1.
As a reminder, the solubility is the concentration that dissolves in the medium under given conditions. As to `O=Cc1ccc2c(c1)Sc1ccccc1N2` [CPD-037, 10H-phenothiazine-3-carbaldehyde], the solubility at 2 h in data set [2] lay in the range of 12.5 to 50 µM (≈ 2.84 to 11.4 µg/mL).
Turning to `O=C(NCCN1CCNCC1)c1cc(NC2CCCCC2)c2c(c1)Sc1ccccc1N2` [CPD-030, 1-(Cyclohexylamino)-N-(2-(piperazin-1-yl)ethyl)-10H-phenothiazine-3-carboxamide tetrahydrochloride], in data set [1], the Logkinh stood at 2.13 ± 0.13 and the “kinh (10^4 M^−1s^−1) ± SD” value was 4.24 ± 0.05 10^4 M^−1s^−1.
Take `Nc1cc(C(=O)NCCN2CCOCC2)cc2c1Nc1ccccc1S2` [CPD-006, 1-Amino-N-(2-morpholinoethyl)-10H-phenothiazine-3-carboxamide]: in data set [1], the Logkinh is 1.61 ± 0.07 and the “kinh (10^4 M^−1s^−1) ± SD” value is listed as 6.71 ± 0.23 10^4 M^−1s^−1.
On to `c1ccc2c(c1)Nc1c(NC3CCCCC3)cccc1S2` [CPD-004, N-cyclohexyl-10H-phenothiazin-1-amine], for which, in data set [1], the Logkinh was found to be 2.37 ± 0.18 and the “kinh (10^4 M^−1s^−1) ± SD” value was 3.04 ± 0.07 10^4 M^−1s^−1.
Turning to `CNCCNC(=O)c1cc(N)c2c(c1)Sc1ccccc1N2` [CPD-007, 1-Amino-N-(2-(methylamino)ethyl)-10H-phenothiazine-3-carboxamide trihydrochloride], in data set [1], the Logkinh was 1.82 ± 0.11 and the “kinh (10^4 M^−1s^−1) ± SD” value was 5.16 ± 0.38 10^4 M^−1s^−1.
The matching figures for `CNCCNC(=O)c1cc(NC2CCCCC2)c2c(c1)Sc1ccccc1N2` [CPD-019, 1-(Cyclohexylamino)-N-(2-(methylamino)ethyl)-10H-phenothiazine-3-carboxamide trihydrochloride]: 1.91 ± 0.15 and 4.42 ± 0.22 10^4 M^−1s^−1.
For the compound `O=C(c1ccc2c(c1)Sc1ccccc1N2)N1CCOCC1` [CPD-031, Morpholino(10H-phenothiazin-3-yl)methanone], in data set [1], the Logkinh is given as 2.11 ± 0.04 and the “kinh (10^4 M^−1s^−1) ± SD” value is reported as 1.15 ± 0.01 10^4 M^−1s^−1.
